Assay results taken from patent US5753458A, “Acylation method for penicillins and cephalosporins” (Gist-Brocades B.V., priority 1994, dated 1998).
Structures can show the parent of a compound that is named as a salt.

What was measured:
[1] = molecular target: T1, immobilized penicillin G acylase from E. coli (Escherichia coli, UniProt P06875); experiment: Enzymatic amoxicillin synthesis with immobilized Pen G acylase and various enzyme modulators (Example 8); format: biochemical; conditions: standard synthesis conditions; enzyme 13 U/ml
T1 sequence (P06875 27-235): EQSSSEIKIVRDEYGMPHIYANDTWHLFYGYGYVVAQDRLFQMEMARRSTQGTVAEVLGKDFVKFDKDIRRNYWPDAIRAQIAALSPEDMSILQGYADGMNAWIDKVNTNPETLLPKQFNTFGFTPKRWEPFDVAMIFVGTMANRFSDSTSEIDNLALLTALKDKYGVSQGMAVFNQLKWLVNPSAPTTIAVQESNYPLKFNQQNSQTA
T1 sequence (P06875 290-846): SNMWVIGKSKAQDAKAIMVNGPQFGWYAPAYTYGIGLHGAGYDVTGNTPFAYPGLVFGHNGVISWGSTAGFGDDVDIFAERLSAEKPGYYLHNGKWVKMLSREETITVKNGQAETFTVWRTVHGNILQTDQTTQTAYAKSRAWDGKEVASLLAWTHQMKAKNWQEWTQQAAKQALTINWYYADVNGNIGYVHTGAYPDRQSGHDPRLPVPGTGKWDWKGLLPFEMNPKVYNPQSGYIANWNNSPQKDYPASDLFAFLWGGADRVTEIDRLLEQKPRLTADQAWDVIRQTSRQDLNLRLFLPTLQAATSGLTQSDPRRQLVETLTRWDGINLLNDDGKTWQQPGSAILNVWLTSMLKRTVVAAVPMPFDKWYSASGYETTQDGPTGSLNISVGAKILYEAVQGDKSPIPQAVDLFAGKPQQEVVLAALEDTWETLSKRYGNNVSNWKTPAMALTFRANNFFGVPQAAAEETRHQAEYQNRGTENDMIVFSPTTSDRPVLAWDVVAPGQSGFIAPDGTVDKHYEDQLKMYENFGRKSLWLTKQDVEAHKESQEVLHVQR
From the text: (§1) The ratio X is defined as the number of moles of D-HPGA consumed per mole of Amox produced. For practical use this can be transformed to X=1+moles D-HPG/moles Amox, wherein "moles D-HPG" is the molar amount of D-HPG produced by hydrolysis of the acylating agent and the desired product and "moles Amox" is the molar amount of Amox present in the reaction mixture. Thus, if X is 1 this means that only the desired synthesis takes place, no hydrolysis. If X is 2, this means that D-HPG and Amox are formed in equal amounts (on a molar basis). If X is 3, this means that twice as much D-HPG as Amox is present in the reaction mixture (on a molar basis). The ratio X can be calculated at any time during reaction, but in the following examples X is calculated at the reaction stop time, which is defined as the time at which 90 % of the theoretical yield of Amox is present in the reaction mixture (based on the inserted amount of 6-APA). Square brackets are used to designate molar concentrations.
(§2) In Examples 1-8 the following standard conditions for enzymatic amoxicillin synthesis have been used (see patent application No. WO 92/01061 for further details):
(§3) During the reactions, the pH value of the reaction mixtures was kept constant by titration with 2M sulphuric acid.
(§4) Representative samples of the reaction mixtures including solid constituents were taken at regular intervals during the reactions and analyzed by HPLC.
The compounds listed below improve synthesis performance (standard synthesis conditions, immobilized penicillin G acylase from E. coli; enzyme dosing 13 U/ml) in the sense that when they are present in the reaction mixture in a concentration within the interval specified, synthesis of the desired β-lactam antibiotic is favoured as compared to hydrolysis of the acylating agent: […]

[2] = molecular target: T1, immobilized penicillin G acylase from E. coli; experiment: Enzymatic amoxicillin synthesis with immobilized Pen G acylase, Phyl concentration varied (Example 2); format: biochemical; conditions: [Phox] 2.6 μM, enzyme 8.6 U/ml
From the text: (§5) V0 (Amox) is the initial velocity of Amox formation, and V0 (D-HPG) is the initial velocity of D-HPG formation, specified as μmoles/min/g enzyme, μmoles/min/ml reaction mixture, or nmoles/min/U (enzyme activity).
as §1, §2, §3, §4
A standard synthesis (immobilized penicillin G acylase from E. coli; enzyme dosing 8.6 U/ml) was carried out with no Phyl added.
Same conditions as in Experiment A were employed, except that Phyl was added to the reaction mixture at the beginning of the experiment in amounts so that the concentrations specified in Table 2 were obtained.

[3] = molecular target: T1, immobilized penicillin G acylase from E. coli; experiment: Enzymatic amoxicillin synthesis with immobilized Pen G acylase, L-(+)-mandelic acid varied (Example 6); format: biochemical; conditions: enzyme 12.0 U/ml
From the text: as §5, §1, §2, §3, §4
A standard synthesis (immobilized penicillin G acylase from E. coli; enzyme dosing 12.0 U/ml) was carried out with no L-(+)-mandelic acid added.
Same conditions as in Experiment A were employed, except that L-(+)-mandelic acid was added to the reaction mixture at the beginning of the experiment in amounts as specified in Table 6. A side product obtained was α-hydroxybenzylpenicillin.

[4] = molecular target: T2, agarose based penicillin G acylase immobilizate (Escherichia coli, UniProt P06875); experiment: Enzymatic amoxicillin synthesis with varying enzyme amounts and constant Phox (Example 4); format: biochemical; conditions: [Phox] 31 μM
T2 construct: processed alpha/beta heterodimer cut from one precursor (signal and spacer peptides removed)
T2 sequence (P06875 290-846): as above
T2 sequence (P06875 27-235): as the sequence (P06875 27-235) above
From the text: as §5, §1, §3, §4
An agarose based penicillin G acylase immobilizate was employed in the following experiments. The immobilizate which was kept in water was drained of excess water on a filter by applying suction for 1 min.

[5] = molecular target: T1, immobilized penicillin G acylase from E. coli; experiment: Enzymatic amoxicillin synthesis with immobilized Pen G acylase, Phox concentration varied (Example 1); format: biochemical; conditions: enzyme 8.6 U/ml
From the text: as §5, §1, §3, §4

[6] = molecular target: T3, Boehringer Mannheim immobilized penicillin G acylase, experimental preparation (Escherichia coli, UniProt P06875); experiment: Enzymatic amoxicillin synthesis with immobilized Pen G acylase, 2-thiopheneacetic acid varied (Example 7); format: biochemical; conditions: enzyme 12 U/ml
T3 construct: purchased Boehringer Mannheim (experimental preparation)
T3 sequence (P06875 27-235): as above
T3 sequence (P06875 290-846): as the sequence (P06875 290-846) above
From the text: as §5, §1, §2, §3, §4
A standard synthesis (Boehringer Mannheim immobilized penicillin G acylase, experimental preparation; enzyme dosing 12 U/ml) was carried out with no 2-thiopheneacetic acid added.
Same conditions as in Experiment A were employed, except that 2-thiopheneacetic acid was added to the reaction mixture at the beginning of the experiment in amounts as specified in Table 7.

[7] = Solubility of acylating agent in aqueous system; format: physicochemical; conditions: aqueous system as used in the examples; dependent on salts, pH, temperature
From the text: The solubility of the acylating agent such as the D-phenylglycine or D-p-hydroxyphenylglycine derivative or originating from the D,L mixtures as described in EP-A-339751, will vary with the identity of the derivative and with the composition of the reaction medium. […] However, the solubility is very dependent on the salt components in the solution, as well as on the pH value and the temperature of the solution. In some embodiments of the process of this invention, the initial reaction mixture is a slurry containing undissolved acylating agent and/or amino β-lactam, which will dissolve partly or fully during the course of the reaction. The β-lactam antibiotic formed may precipitate during the reaction and, also, the hydrolysis products of the acylating agent such as D-phenylglycine and D-p-hydroxyphenylglycine, may precipitate.

[8] = Exp B, [L-(+)-Mandelic acid] 0.64 mM
[9] = Exp C, [L-(+)-Mandelic acid] 3.3 mM
[10] = Exp D, [L-(+)-Mandelic acid] 6.7 mM
[11] = Exp E, [L-(+)-Mandelic acid] 13.3 mM
[12] = Exp F, [L-(+)-Mandelic acid] 14.2 mM
[13] = Exp G, [L-(+)-Mandelic acid] 36.1 mM
[14] = Exp A, [Phox] 2.6 μM (residual, none added)
[15] = Exp B, [Thiopheneacetic acid] 0.03 mM
[16] = Exp C, [Thiopheneacetic acid] 0.3 mM

O=C(O)COc1ccc(O)cc1 [p-Hydroxyphenoxyacetic acid]
Concentration interval where improvement of ratio X is found [1]: 2 to 500 µM

CC1(C)[C@H](C(=O)O)N2C(=O)[C@@H](NC(=O)Cc3ccccc3)[C@H]2[S+]1[O-] (stereo partly drawn) [Penicillin G sulfoxide]
Concentration interval where improvement of ratio X is found [1]: 2 to 500 µM

O=C(O)Cc1ccccc1 [Phyl, phenylacetic acid]
Initial velocity V0 (Amox) ([2]; Exp B, [Phyl] 32.9 μM): 10.8 µmol/min/g
Initial velocity V0 (D-HPG) ([2]; Exp B, [Phyl] 32.9 μM): 13.8 µmol/min/g
Reaction stop time ([2]; Exp B, [Phyl] 32.9 μM): 4.2 h
X at reaction stop time ([2]; Exp B, [Phyl] 32.9 μM): 2.7
Initial velocity V0 (Amox) ([2]; Exp C, [Phyl] 63.3 μM): 8.1 µmol/min/g
Initial velocity V0 (D-HPG) ([2]; Exp C, [Phyl] 63.3 μM): 8.8 µmol/min/g
Reaction stop time ([2]; Exp C, [Phyl] 63.3 μM): 5.1 h
X at reaction stop time ([2]; Exp C, [Phyl] 63.3 μM): 2.5
Initial velocity V0 (Amox) ([2]; Exp D, [Phyl] 127 μM): 5.2 µmol/min/g
Initial velocity V0 (D-HPG) ([2]; Exp D, [Phyl] 127 μM): 5.4 µmol/min/g
Reaction stop time ([2]; Exp D, [Phyl] 127 μM): 5.8 h
X at reaction stop time ([2]; Exp D, [Phyl] 127 μM): 2.2

O=[N+]([O-])c1ccc(O)c(CBr)c1 [2-Hydroxy-5-nitrobenzyl bromide]
Concentration interval where improvement of ratio X is found [1]: 10 to 500 µM

O=C(O)CSc1ccccc1 [(Phenylthio)acetic acid]
Concentration interval where improvement of ratio X is found [1]: 2 to 1000 µM

O=S(=O)(F)Cc1ccccc1 [Phenylmethylsulfonyl fluoride]
Concentration interval where improvement of ratio X is found [1]: 0.2 to 10 µM

O=C(O)[C@@H](O)c1ccccc1 [L-(+)-Mandelic acid, L-(+)-mandelic acid]
Initial velocity V0 (Amox) [3, 8]: 156 nmoles/min/U
Initial velocity V0 (D-HPG) [3, 8]: 207 nmoles/min/U
Reaction stop time [3, 8]: 2.4 h
X at reaction stop time [3, 8]: 2.9
Initial velocity V0 (Amox) [3, 9]: 137 nmoles/min/U
Initial velocity V0 (D-HPG) [3, 9]: 174 nmoles/min/U
Reaction stop time [3, 9]: 2.8 h
X at reaction stop time [3, 9]: 2.8
Initial velocity V0 (Amox) [3, 10]: 119 nmoles/min/U
Initial velocity V0 (D-HPG) [3, 10]: 146 nmoles/min/U
Reaction stop time [3, 10]: 3.0 h
X at reaction stop time [3, 10]: 2.65
Initial velocity V0 (Amox) [3, 11]: 89 nmoles/min/U
Initial velocity V0 (D-HPG) [3, 11]: 110 nmoles/min/U
Reaction stop time [3, 11]: 4.7 h
X at reaction stop time [3, 11]: 2.65
Initial velocity V0 (Amox) [3, 12]: 80 nmoles/min/U
Initial velocity V0 (D-HPG) [3, 12]: 106 nmoles/min/U
Reaction stop time [3, 12]: 4.2 h
X at reaction stop time [3, 12]: 2.8
Initial velocity V0 (Amox) [3, 13]: 49 nmoles/min/U
Initial velocity V0 (D-HPG) [3, 13]: 68 nmoles/min/U
Reaction stop time [3, 13]: 5.5 h
X at reaction stop time [3, 13]: 2.8
optimal concentration with respect to minimization of the ratio X ([3]; under the conditions chosen): 3.3 to 14.2 mM

CC1(C)S[C@@H]2[C@H](NC(=O)COc3ccccc3)C(=O)N2[C@H]1C(=O)O [Penicillin V]
Concentration interval where improvement of ratio X is found [1]: 2-1000 μm

O=C(O)COc1ccccc1 [Phox, phenoxyacetic acid]
Initial velocity V0 (Amox) ([4]; Exp A, enzyme dosage 11.9 U/ml): 1.17 µmol/min/mL
X at stop time ([4]; Exp A, enzyme dosage 11.9 U/ml): 1.75
Initial velocity V0 (Amox) ([4]; Exp B, enzyme dosage 23.8 U/ml): 2.97 µmol/min/mL
Initial velocity V0 (D-HPG) ([4]; Exp B, enzyme dosage 23.8 U/ml): 1.85 µmol/min/mL
Initial velocity V0 (D-HPG) ([4]; Exp C, enzyme dosage 47.5 U/ml): ca. 5.6 μmoles/min/ml
X at stop time ([4]; Exp C, enzyme dosage 47.5 U/ml): ca. 2.0
Initial velocity V0 (Amox) [5, 14]: 17.7 µmol/min/g
Initial velocity V0 (D-HPG) [5, 14]: 25.0 µmol/min/g
Reaction stop time [5, 14]: 2.1 h
X at reaction stop time [5, 14]: 2.9
Initial velocity V0 (Amox) ([5]; Exp B, [Phox] 9.9 μM): 13.1 µmol/min/g
Initial velocity V0 (D-HPG) ([5]; Exp B, [Phox] 9.9 μM): 16.5 µmol/min/g
Reaction stop time ([5]; Exp B, [Phox] 9.9 μM): 3.3 h
X at reaction stop time ([5]; Exp B, [Phox] 9.9 μM): 2.7
Initial velocity V0 (Amox) ([5]; Exp C, [Phox] 16.8 μM): 11.9 µmol/min/g
Initial velocity V0 (D-HPG) ([5]; Exp C, [Phox] 16.8 μM): 13.8 µmol/min/g
Reaction stop time ([5]; Exp C, [Phox] 16.8 μM): 4.1 h
X at reaction stop time ([5]; Exp C, [Phox] 16.8 μM): 2.55
Initial velocity V0 (Amox) ([5]; Exp D, [Phox] 31.0 μM): 8.8 µmol/min/g
Initial velocity V0 (D-HPG) ([5]; Exp D, [Phox] 31.0 μM): 8.8 µmol/min/g
Reaction stop time ([5]; Exp D, [Phox] 31.0 μM): 5.7 h
X at reaction stop time ([5]; Exp D, [Phox] 31.0 μM): 2.35
Initial velocity V0 (Amox) ([5]; Exp E, [Phox] 61.7 μM): 6.5 µmol/min/g
Initial velocity V0 (D-HPG) ([5]; Exp E, [Phox] 61.7 μM): 5.4 µmol/min/g
Reaction stop time ([5]; Exp E, [Phox] 61.7 μM): 9.5 h

O=C(O)Cc1cccs1 [Thiopheneacetic acid, 2-thiopheneacetic acid]
Initial velocity V0 (Amox) [6, 15]: 1.68 µmol/min/mL
Initial velocity V0 (D-HPG) [6, 15]: 1.95 µmol/min/mL
Reaction stop time [6, 15]: 2.3 h
X at reaction stop time [6, 15]: 2.7
Initial velocity V0 (Amox) [6, 16]: 0.15 µmol/min/mL
Initial velocity V0 (D-HPG) [6, 16]: 0.058 µmol/min/mL
Reaction stop time [6, 16]: 12 h
X at reaction stop time [6, 16]: 1.6

NC(=O)[C@H](N)c1ccccc1 [hydrochloride of D-phenylglycine amide, D-phenylglycine amide]
solubility [7]: approximately 450 mM

CC1(C)S[C@@H]2[C@H](NC(=O)Cc3ccccc3)C(=O)N2[C@H]1C(=O)O [Penicillin G]
Concentration interval where improvement of ratio X is found [1]: 2 to 1000 µM
